According to ChEMBL document CHEMBL1201862, “PubChem BioAssay data set” (2004):
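Method: 48-hour compound exposure of cells in 96-well plates, five concentrations, linear interpolation of endpoints. GI50 marks 50% less growth.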 Active and inactive are the calls of the source. No stated cut-off is given here; in the data, active = GI50 up to about 1.1 µM and inactive = higher.

Key:
Assay in all cases: NCI-60 cell line screen, 48 h
[1] = system: 786-0
[2] = system: A549
[3] = system: EKVX
[4] = system: HCT-15
[5] = system: HT-29
[6] = system: IGROV-1
[7] = system: Malme-3M
[8] = system: OVCAR-5
[9] = system: RPMI-8226
[10] = system: SK-MEL-28
[11] = system: SK-MEL-2
[12] = system: SK-OV-3
[13] = system: SW-620
[14] = system: U-251
[15] = system: UACC-257
[16] = system: UACC-62
[17] = system: MDA-MB-231
[18] = system: T47D
[19] = system: MDA-MB-435
[20] = system: MDA-N

| Structure (SMILES) | GI50 [1] | GI50 [2] | GI50 [3] | GI50 [4] | GI50 [5] | GI50 [6] | GI50 [7] | GI50 [8] | GI50 [9] | GI50 [10] | GI50 [11] | GI50 [12] | GI50 [13] | GI50 [14] | GI50 [15] | GI50 [16] | GI50 [17] | GI50 [18] | GI50 [19] | GI50 [20] |
| --- | --- | --- | --- | --- | --- | --- | --- | --- | --- | --- | --- | --- | --- | --- | --- | --- | --- | --- | --- | --- |
| CSc1cnc2ccccc2c1Sc1c[nH]c2ccccc2c1=O | 15.3 µM (inactive) | 5.51 µM (inactive) | 7.87 µM (inactive) | 7.1 µM | 3.72 µM (inactive) | 14.4 µM (inactive) | 6.55 µM (inactive) | 24.4 µM (inactive) | 6.65 µM (inactive) | 11.1 µM (inactive) | 10.4 µM (inactive) | 3.51 µM (inactive) | 3.56 µM (inactive) | 6.49 µM (inactive) | 11.3 µM (inactive) | 4.03 µM (inactive) | – | – | – | – |
| O=[N+]([O-])C(=C(Nc1ccccc1)Nc1ccccc1)/C(Cl)=C(\Cl)Br | 16.3 µM (inactive) | 20.7 µM (inactive) | 14.8 µM (inactive) | 11.9 µM | 16.2 µM (inactive) | – | 16.5 µM (inactive) | 10.6 µM (inactive) | 3.61 µM (inactive) | 13.6 µM (inactive) | 18 µM (inactive) | – | 6.82 µM (inactive) | 15 µM (inactive) | 14.7 µM (inactive) | – | 15.6 µM (inactive) | 12.7 µM (inactive) | – | – |
| CC(=O)CC(=O)CCCC(=O)Nc1ccc(Cl)cc1C | > 100 µM (inactive) | > 100 µM (inactive) | > 100 µM (inactive) | > 100 µM | > 100 µM (inactive) | > 100 µM (inactive) | > 100 µM (inactive) | > 100 µM (inactive) | > 100 µM (inactive) | – | > 100 µM (inactive) | > 100 µM (inactive) | > 100 µM (inactive) | > 100 µM (inactive) | > 100 µM (inactive) | > 100 µM (inactive) | – | – | – | – |
| c1ccc2cc(-c3cc4ccccc4s3)ccc2c1 | > 100 µM (inactive) | > 100 µM (inactive) | > 100 µM (inactive) | > 100 µM | > 100 µM (inactive) | > 100 µM (inactive) | > 100 µM (inactive) | > 100 µM (inactive) | > 100 µM (inactive) | > 100 µM (inactive) | > 100 µM (inactive) | 22.1 µM (inactive) | > 100 µM (inactive) | > 100 µM (inactive) | > 100 µM (inactive) | > 100 µM (inactive) | – | – | – | – |
| CCC(=O)c1cn(C)c(=O)c2ccccc12 | > 100 µM (inactive) | > 100 µM (inactive) | > 100 µM (inactive) | > 100 µM | > 100 µM (inactive) | > 100 µM (inactive) | > 100 µM (inactive) | > 100 µM (inactive) | > 100 µM (inactive) | > 100 µM (inactive) | > 100 µM (inactive) | > 100 µM (inactive) | > 100 µM (inactive) | > 100 µM (inactive) | > 100 µM (inactive) | > 100 µM (inactive) | – | – | – | – |
| c1ccc2c(CNCCCN3CCN(CCCNCc4cccc5ccccc45)CC3)cccc2c1 | 1.91 µM (inactive) | 2.01 µM (inactive) | 3.6 µM (inactive) | 1.8 µM | 1.65 µM (inactive) | 3.07 µM (inactive) | 2.06 µM (inactive) | 2.15 µM (inactive) | 1.03 µM (active) | 1.69 µM (inactive) | 1.65 µM (inactive) | 2.39 µM (inactive) | 1.77 µM (inactive) | 1.73 µM (inactive) | 1.92 µM (inactive) | 1.79 µM (inactive) | – | – | – | – |
| c1ccc(-c2nnc(CCCCCCCCc3nnc(-c4ccccc4)o3)o2)cc1 | 74 µM (inactive) | 32 µM (inactive) | > 100 µM (inactive) | > 100 µM | 45.1 µM (inactive) | 66.5 µM (inactive) | > 100 µM (inactive) | > 100 µM (inactive) | – | > 100 µM (inactive) | > 100 µM (inactive) | > 100 µM (inactive) | > 100 µM (inactive) | 53 µM (inactive) | 42.2 µM (inactive) | – | 12.2 µM (inactive) | – | > 100 µM (inactive) | – |
| Cc1c(-c2ccc(O)c(O)c2)oc(=O)c2c(O)cccc12 | 9.73 µM (inactive) | 7.93 µM (inactive) | 8.87 µM (inactive) | 3.96 µM | – | 5.82 µM (inactive) | 13.3 µM (inactive) | 14.8 µM (inactive) | 13.7 µM (inactive) | – | 13.1 µM (inactive) | 6.04 µM (inactive) | 12.2 µM (inactive) | 12.1 µM (inactive) | 15.7 µM (inactive) | – | – | 1.55 µM (inactive) | 3.17 µM (inactive) | – |
| COc1ccc2c(C(=O)O)cc3cc(OC)c(OC)cc3c2c1 | > 100 µM (inactive) | > 100 µM (inactive) | > 100 µM (inactive) | > 100 µM | > 100 µM (inactive) | > 100 µM (inactive) | > 100 µM (inactive) | > 100 µM (inactive) | > 100 µM (inactive) | > 100 µM (inactive) | > 100 µM (inactive) | > 100 µM (inactive) | > 100 µM (inactive) | > 100 µM (inactive) | > 100 µM (inactive) | > 100 µM (inactive) | – | – | – | – |
| CCc1ccccc1NC(=O)C(C#N)C1=C(Cl)C(=O)c2ccccc2C1=O (stereo unspecified) | 15.5 µM (inactive) | 21.9 µM (inactive) | 17.1 µM (inactive) | 14.7 µM | 14.1 µM (inactive) | 12.6 µM (inactive) | 6.07 µM (inactive) | 18.6 µM (inactive) | 12.4 µM (inactive) | 16.9 µM (inactive) | 17.3 µM (inactive) | 36.6 µM (inactive) | 18.4 µM (inactive) | 15.4 µM (inactive) | 16.4 µM (inactive) | 16.8 µM (inactive) | 7.03 µM (inactive) | 19.5 µM (inactive) | 25.6 µM (inactive) | – |
| N#Cc1c(-c2ccc([N+](=O)[O-])cc2)cc(-c2ccc(Nc3ccnc4cc(C(F)(F)F)ccc34)cc2)[nH]c1=O | 51.9 µM (inactive) | > 100 µM (inactive) | > 100 µM (inactive) | > 100 µM | 92.9 µM (inactive) | > 100 µM (inactive) | > 100 µM (inactive) | 21.4 µM (inactive) | > 100 µM (inactive) | > 100 µM (inactive) | > 100 µM (inactive) | > 100 µM (inactive) | > 100 µM (inactive) | 10 µM (inactive) | > 100 µM (inactive) | > 100 µM (inactive) | 16.3 µM (inactive) | > 100 µM (inactive) | > 100 µM (inactive) | – |
| Cc1ccc(C(=O)O/N=C2/CCCCC2CN(C)C)cc1 (stereo unspecified) | > 100 µM (inactive) | > 100 µM (inactive) | > 100 µM (inactive) | > 100 µM | > 100 µM (inactive) | > 100 µM (inactive) | > 100 µM (inactive) | > 100 µM (inactive) | > 100 µM (inactive) | > 100 µM (inactive) | > 100 µM (inactive) | > 100 µM (inactive) | – | > 100 µM (inactive) | > 100 µM (inactive) | > 100 µM (inactive) | – | – | – | – |
| NC1CC(=O)c2ccccc21 (stereo unspecified) | > 100 µM (inactive) | > 100 µM (inactive) | > 100 µM (inactive) | > 100 µM | > 100 µM (inactive) | > 100 µM (inactive) | – | > 100 µM (inactive) | > 100 µM (inactive) | > 100 µM (inactive) | > 100 µM (inactive) | > 100 µM (inactive) | > 100 µM (inactive) | > 100 µM (inactive) | > 100 µM (inactive) | > 100 µM (inactive) | > 100 µM (inactive) | > 100 µM (inactive) | > 100 µM (inactive) | – |
| CC(C)CCn1c(=O)c2c(=O)[nH][nH]c2c2ccccc21 | > 100 µM (inactive) | > 100 µM (inactive) | > 100 µM (inactive) | > 100 µM | > 100 µM (inactive) | > 100 µM (inactive) | > 100 µM (inactive) | > 100 µM (inactive) | > 100 µM (inactive) | > 100 µM (inactive) | – | – | > 100 µM (inactive) | > 100 µM (inactive) | > 100 µM (inactive) | – | > 100 µM (inactive) | – | > 100 µM (inactive) | > 100 µM (inactive) |
| O=C(NC(CS)C(=O)O)c1cccc2c(=O)c3ccccc3[nH]c12 (stereo unspecified) | > 100 µM (inactive) | > 100 µM (inactive) | > 100 µM (inactive) | > 100 µM | 83.4 µM (inactive) | > 100 µM (inactive) | > 100 µM (inactive) | > 100 µM (inactive) | > 100 µM (inactive) | > 100 µM (inactive) | > 100 µM (inactive) | > 100 µM (inactive) | > 100 µM (inactive) | > 100 µM (inactive) | – | > 100 µM (inactive) | > 100 µM (inactive) | – | > 100 µM (inactive) | > 100 µM (inactive) |
| O=[N+]([O-])c1ccc(/C=C/c2ccc(/C=C/c3ccc([N+](=O)[O-])cc3[N+](=O)[O-])cc2)c([N+](=O)[O-])c1 | > 100 µM (inactive) | > 100 µM (inactive) | > 100 µM (inactive) | > 100 µM | > 100 µM (inactive) | > 100 µM (inactive) | > 100 µM (inactive) | > 100 µM (inactive) | > 100 µM (inactive) | > 100 µM (inactive) | > 100 µM (inactive) | > 100 µM (inactive) | > 100 µM (inactive) | > 100 µM (inactive) | > 100 µM (inactive) | > 100 µM (inactive) | – | – | – | – |
| Nc1ccc(/N=N\c2ccc(-c3ccc(O)cc3)cc2)c2ccc(S(=O)(=O)O)cc12 | > 100 µM (inactive) | > 100 µM (inactive) | > 100 µM (inactive) | > 100 µM | > 100 µM (inactive) | > 100 µM (inactive) | > 100 µM (inactive) | > 100 µM (inactive) | > 100 µM (inactive) | > 100 µM (inactive) | > 100 µM (inactive) | > 100 µM (inactive) | > 100 µM (inactive) | > 100 µM (inactive) | > 100 µM (inactive) | > 100 µM (inactive) | > 100 µM (inactive) | > 100 µM (inactive) | > 100 µM (inactive) | – |
